The source made the active and inactive calls.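 How the source made its calls: active means mean IC50 below 800 nM; inactive means the rest.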

Among the data in PubChem BioAssay AID504515 (Sanford-Burnham Center for Chemical Genomics, 2011) are IC50 values, retold here.

The assay relates to Jurkat NF-kB luciferase, PMA/ionomycin-induced, luminescence 16 h. The experiment in a line: inhibitors of PMA/ionomycin-driven NF-kB luciferase in Jurkat – cell-based, luminescence, set 2, B-cell antigen receptor NF-kB inhibitors, SAR follow-up (AID 504515).

For the compound `Cc1oc(-c2ccc(OC(F)(F)F)cc2)nc1CSCC(=O)O`, the half-inhibitory concentration (IC50) is 290 nM. As for `CCCOc1ccc(-c2nc(CSCC(=O)NC3CC3)c(C)o2)cc1`, the IC50 was > 800 nM (inactive). `CC(C)c1ccc(-c2noc(CCC(=O)NC3CC3)n2)cc1`: the IC50 is > 800 nM (inactive). As to `CCCOc1ccc(-c2nc(CSCC(=O)O)c(C)o2)cc1`, the IC50 is 30 nM. The value for `CCCCOc1ccc(-c2nc(CSCC(=O)O)c(C)o2)cc1` was 70 nM; that for `CCOc1ccc(-c2nc(CSCC(=O)O)c(C)o2)cc1` was 30 nM. Take `CCCOc1ccc(-c2nc(CSCC(=O)NCc3ccco3)c(C)o2)cc1`: the IC50 is > 800 nM (inactive). In the case of `CCCCc1ccc(-c2noc(CCC(=O)NC)n2)cc1`, the IC50 is > 800 nM (inactive). On to `CCCCc1ccc(-c2noc(CCC(=O)NCC)n2)cc1`, for which the IC50 is > 800 nM (inactive). Regarding `C#CCNC(=O)CSCc1nc(-c2ccc(OCC)cc2)oc1C`, the IC50 is > 800 nM (inactive). The value for `CCOc1ccc(-c2nc(CSCC(N)=O)c(C)o2)cc1` was > 800 nM (inactive).

As usually defined, the IC50 is the concentration needed to halve the response being measured.
